Source: US7795226B2, “Control of radiation injury” (Biotempt B.V., priority 2006, dated 2010)
Values joined by “and” are separate entries in the source; they are usually repeats but may differ in a detail not shown here. Equal values may be shown once.

How the values were obtained:
Type in all cases: in vivo
[1] = system: renal ischemia reperfusion in mice; experiment: mouse renal ischemia reperfusion test; set-up: BUN after 25 minutes renal ischemia, mean / Urea levels in dose-response experiment: unit not given here
Procedure: Six oligopeptides (i.e., A: LAGV (SEQ ID NO:121); B: AQGV (SEQ ID NO:120); C: LAG; D: AQG; E: MTR; and F: MTRV (SEO ID NO:119)) were tested and compared with PBS (control) in a double blind animal study for each peptide's relative ability to aid recovery in a mouse renal ischemia reperfusion test. In this test, the mice were anesthetized, and one kidney from each mouse was removed. The other kidney was tied off for 25 minutes, and the serum urea levels were allowed to increase. Both before and after tying off, each of the separate peptides was administered to thirty (30) different mice (5 mg oligopeptide / kg body mass intravenously), after which, the mortality of the mice was determined for each oligopeptide as well as was the BUN concentration at two hours, 24 hours and 72 hours. The results are shown in Table 3 below (excluding the results of peptide A (LAGV (SEQ ID NO:121)) obtained in Example 3).
Under inhalation anesthesia, the left kidney with its artery and vein was isolated and occluded for 25 minutes using a microvascular clamp. During surgery, animals were placed on a heating pad to maintain body temperature at 37° C. Five minutes before placing the clamp, and five minutes before releasing the clamp, 5 mg/kg of peptide dissolved in 0.1 mL of sterile saline, was administered intravenously. After reperfusion of the left kidney, the right kidney was removed. Kidney function was assessed by measuring blood urea nitrogen before clamping, and at 2, 24, and 72 hours after reperfusion.
Peptides were tested at 0.3, 1, 3, 10 and 30 mg/kg dosages given as described in Example 3. P values (calculated by Mann Whitney U-test (SPSS for Windows)) of serum urea levels of PBS compared to peptide D groups at 72 hours post-clamping were at 0.3 mg/kg 0.001, at 1 mg/kg 0.009, at 3 mg/kg 0.02, at 10 mg/kg 0.000, and at 30 mg/kg 0.23; for peptide B (SEQ ID NO:120) groups, these P-values were 0.88, 0.054, 0.000, 0.001 and 0.003.

[2] = system: LPS (E. coli 026:B6)-induced sepsis in BALB/c mice; experiment: endotoxin shock survival after early or late treatment with peptide
Procedure: (§1) Mice used in sepsis or septic shock experiments: Female BALB/c mice of eight to twelve weeks of age were used for all experiments. The animals were bred in our facility under specific pathogen-free conditions according to the protocols described in the […] of European Laboratory Animal Science Associations (FELASA) Working group on Animal Health (Laboratory Animals 28:1-24, 1994).
(§2) Injection protocols: For the endotoxin model, BALB/c mice were injected i.p. with 150-300 μg LPS (E. coli 026:B6; Difco Lab., Detroit, Mich., USA). Control groups were treated with PBS i.p. only. To test the effect of peptides, they were dissolved in PBS and injected i.p. at predetermined points in time after LPS treatment.
A further set of septic shock experiments were set up to determine which of the peptides LQG, LQGV (SEQ ID NO:117), VLPALP (SEQ ID NO:140), VLPALPQ (SEQ ID NO:143), MTR, MTRV (SEQ ID NO:119), VVC or AQGV (SEQ ID NO:120) under study were most suited to be used early and/or late after or throughout the development of shock. For determining the percent of endotoxin shock survival after late or early treatment with peptide, BALB/c mice were injected i.p. with 300 μg LPS (E. coli 026:B6; Difco Lab., Detroit, Mich. USA), predetermined to be leading to 100% mortality in 48 hours without peptide treatment.
To evaluate the effect of peptide treatment at an early or late point in time of development of shock, mice were treated at two hours or at 24 hours after LPS injection by i.p. injection with test peptide at 5 mg/kg bodyweight. The mice were followed for 84 hours instead of for 48 hours in the earlier experiments.

[3] = system: LPS (E. coli 026:B6)-induced septic shock in BALB/c mice; experiment: LPS-induced septic shock, single dose of peptide
Procedure: as §1, §2
Mice were scored for sickness severity using the following measurement scheme: • 0 No abnormalities. • 1 Percolated fur, but no detectable behavior differences compared to normal mice. • 2 Percolated fur, huddle reflex, responds to stimuli (such as tap on cage), just as active during handling as healthy mouse. • 3 Slower response to tap on cage, passive or docile when handled, but still curious when alone in a new setting. • 4 Lack of curiosity, little or no response to stimuli, quite immobile. • 5 Labored breathing, inability or slow to self-right after being rolled onto back (moribund, sacrificed). • D Dead.
A first set of septic shock experiments were set up to determine which of the peptides LQG, LQGV (SEQ ID NO:117), VLPALP (SEQ ID NO:140), VLPALPQ (SEQ ID NO:143), MTR, MTRV (SEQ ID NO:119), VVC or QVVC (SEQ ID NO:118) were capable of inhibiting lipopolysaccharide (LPS)-induced septic shock in mice by treating mice with a single dose of peptide at two hours after LPS treatment. Peptides were used at 5 mg/kg bodyweight. BALB/c mice were injected i.p. with escalating doses LPS (E. coli 026:B6; Difco Lab., Detroit, Mich. USA), predetermined to be leading to 80 to 100% mortality in 24 to 72 hours.
To test the effect of peptide early in the development of shock, mice were treated at two hours or at 24 hours after treatment with varying doses of LPS by i.p. injection with test peptide at 5 mg/kg bodyweight.

[4] = 2 hours after reperfusion, 5 mg/kg i.v.
[5] = 24 hours after reperfusion, 5 mg/kg i.v.
[6] = 72 hours after reperfusion, 5 mg/kg i.v.
[7] = t = 0 hr (before clamping), 5 mg/kg i.v.
[8] = 0 hours, peptide 5 mg/kg 2 hours after LPS
[9] = 0 hours, peptide 5 mg/kg 24 hours after LPS
[10] = 14 hours, peptide 5 mg/kg 2 hours after LPS
[11] = 14 hours, peptide 5 mg/kg 24 hours after LPS
[12] = 24 hours, peptide 5 mg/kg 2 hours after LPS
[13] = 24 hours, peptide 5 mg/kg 24 hours after LPS
[14] = 48 hours, peptide 5 mg/kg 2 hours after LPS
[15] = 48 hours, peptide 5 mg/kg 24 hours after LPS
[16] = 84 hours, peptide 5 mg/kg 2 hours after LPS
[17] = 84 hours, peptide 5 mg/kg 24 hours after LPS
[18] = LPS dose 7**, single dose 5 mg/kg
[19] = LPS dose 7*, single dose 5 mg/kg
[20] = LPS dose 8, single dose 5 mg/kg
[21] = LPS dose 10, single dose 5 mg/kg
[22] = LPS dose 10, single dose 5 mg/kg, 5 mg/kg

LQG
BUN after 25 minutes renal ischemia, mean [1, 4]: 16.75 | BUN after 25 minutes renal ischemia, mean [1, 5]: 26.74 | BUN after 25 minutes renal ischemia, mean [1, 6]: 83.96 | BUN concentration versus PBS (in words) ([1]; at 24 hours post-reperfusion, 5 mg/kg i.v.): reduced BUN concentration | BUN after 25 minutes renal ischemia, mean [1, 7]: 7.821 | % Survival [2, 8]: 100% | % Survival [2, 9]: 100% | % Survival [2, 10]: 100% | % Survival [2, 11]: 100% | % Survival [2, 12]: 100% | % Survival [2, 13]: 100% | % Survival [2, 14]: 0% | % Survival [2, 15]: 0% | % Survival [2, 16]: 0% | % Survival [2, 17]: 0% | mice scored D (dead), effect at t = 24 hours [3, 18]: 1 | mice scored D (dead), effect at t = 48 hours [3, 18]: 5 | mice with sickness score 4, effect at t = 24 hours [3, 18]: 3 | mice with sickness score 4, effect at t = 48 hours [3, 18]: 1 | mice with sickness score 5, effect at t = 24 hours [3, 18]: 2 | mice scored D (dead), effect at t = 48 hours [3, 19]: 4 | mice with sickness score 4, effect at t = 24 hours [3, 19]: 3 | mice with sickness score 5, effect at t = 24 hours [3, 19]: 3 | mice with sickness score 5, effect at t = 48 hours [3, 19]: 2 | mice scored D (dead), effect at t = 24 hours [3, 20]: 1 | mice scored D (dead), effect at t = 48 hours [3, 20]: 6 | mice with sickness score 2, effect at t = 24 hours [3, 20]: 2 | mice with sickness score 3, effect at t = 24 hours [3, 20]: 1 | mice with sickness score 3, effect at t = 48 hours [3, 20]: 1 | mice with sickness score 4, effect at t = 48 hours [3, 20]: 2 | mice with sickness score 5, effect at t = 24 hours [3, 20]: 4 | mice with sickness score 5, effect at t = 48 hours [3, 20]: 3 | mice with sickness score 3, effect at t = 24 hours [3, 21]: 1 | mice with sickness score 4, effect at t = 24 hours [3, 21]: 2 | mice with sickness score 4, effect at t = 48 hours [3, 21]: 1 | mice with sickness score 5, effect at t = 48 hours [3, 21]: 2 | mice scored D (dead), effect at t = 48 hours [3, 22]: 4 and 3 | mice with sickness score 5, effect at t = 24 hours [3, 22]: 4 and 3

LQGV
BUN after 25 minutes renal ischemia, mean [1, 4]: 17.53 | BUN after 25 minutes renal ischemia, mean [1, 5]: 56.08 | BUN after 25 minutes renal ischemia, mean [1, 6]: 73.18 | BUN after 25 minutes renal ischemia, mean [1, 7]: 7.518 | % Survival [2, 8]: 100% | % Survival [2, 9]: 100% | % Survival [2, 10]: 100% | % Survival [2, 11]: 100% | % Survival [2, 12]: 100% | % Survival [2, 13]: 100% | % Survival [2, 14]: 100% | % Survival [2, 15]: 0% | % Survival [2, 16]: 100% | % Survival [2, 17]: 0% | protective effect against LPS-induced sepsis (in words) ([3]; 5 mg/kg i.p.): marked protective effect | mice with sickness score 1, effect at t = 24 hours [3, 18]: 6 | mice with sickness score 1, effect at t = 48 hours [3, 18]: 6 | mice with sickness score 1, effect at t = 24 hours [3, 19]: 2 | mice with sickness score 1, effect at t = 48 hours [3, 19]: 6 | mice with sickness score 2, effect at t = 24 hours [3, 19]: 4 | mice with sickness score 0, effect at t = 48 hours [3, 20]: 4 | mice with sickness score 1, effect at t = 24 hours [3, 20]: 3 | mice with sickness score 2, effect at t = 48 hours [3, 20]: 1 | mice with sickness score 3, effect at t = 24 hours [3, 20]: 1 | mice with sickness score 2, effect at t = 24 hours ([3]; LPS dose 8, single dose 5 mg/kg, 5 mg/kg): 5 and 3 | mice scored D (dead), effect at t = 48 hours [3, 21]: 1 | mice with sickness score 1, effect at t = 24 hours [3, 21]: 2 | mice with sickness score 2, effect at t = 48 hours [3, 21]: 1 | mice with sickness score 3, effect at t = 24 hours [3, 21]: 1 | mice with sickness score 4, effect at t = 24 hours [3, 21]: 1 | mice with sickness score 1, effect at t = 48 hours [3, 22]: 6 and 4

MTR
BUN concentration versus the PBS control group (in words) ([1]; 5 mg/kg i.v.): no reducing effect on BUN concentration | mortality versus the PBS control group (in words) ([1]; 5 mg/kg i.v.): significant reduction of mortality | mortality at 72 hours post-reperfusion ([1]; 5 mg/kg i.v. before and after 25 minutes clamping, dead/total): 4/10 | BUN after 25 minutes renal ischemia, mean [1, 4]: 17.13 | BUN after 25 minutes renal ischemia, mean [1, 5]: 66.23 | BUN after 25 minutes renal ischemia, mean [1, 6]: 104.0167 | BUN concentration versus PBS (in words) ([1]; at 72 hours post-reperfusion, 5 mg/kg i.v.): significantly raise BUN levels | BUN after 25 minutes renal ischemia, mean [1, 7]: 8.404 | % Survival [2, 8]: 100% | % Survival [2, 9]: 100% | % Survival [2, 10]: 100% | % Survival [2, 11]: 100% | % Survival [2, 12]: 100% | % Survival [2, 13]: 100% | % Survival [2, 14]: 100% | % Survival [2, 15]: 100% | % Survival [2, 16]: 50% | % Survival [2, 17]: 100% | mice scored D (dead), effect at t = 48 hours [3, 18]: 3 | mice with sickness score 1, effect at t = 48 hours [3, 18]: 3 | mice with sickness score 2, effect at t = 24 hours [3, 18]: 1 | mice with sickness score 3, effect at t = 24 hours [3, 18]: 3 | mice with sickness score 4, effect at t = 24 hours [3, 18]: 1 | mice with sickness score 5, effect at t = 24 hours [3, 18]: 1 | mice scored D (dead), effect at t = 48 hours [3, 19]: 1 | mice with sickness score 3, effect at t = 24 hours [3, 19]: 3 | mice with sickness score 4, effect at t = 24 hours [3, 19]: 3 | mice with sickness score 4, effect at t = 48 hours [3, 19]: 2 | mice with sickness score 5, effect at t = 48 hours [3, 19]: 3 | mice scored D (dead), effect at t = 24 hours [3, 21]: 1 | mice scored D (dead), effect at t = 48 hours [3, 21]: 3 | mice with sickness score 1, effect at t = 48 hours [3, 21]: 2 | mice with sickness score 3, effect at t = 24 hours [3, 21]: 2 | mice with sickness score 4, effect at t = 24 hours [3, 21]: 3 | mice with sickness score 5, effect at t = 48 hours [3, 21]: 1
